Assay results published in patent publication US8377934B2, “Use of stilbene derivatives for treatment and prevention of aquatic mold infections” (State of Israel, Ministry of Agriculture & Rural …, priority 2006, dated 2013).

Legend:
Daphnia sp. = assay: Toxicity to zooplankton (motility); format: in vivo; settings: 100 and 1,000 mg/L, 48 h
Experimental: Daphnia sp. is a small (0.2 to 5 mm in length) planktonic crustacean, commonly used as a model for aquatic toxicity.
Daphnia (˜1,000 […]/L water) was exposed to Blankophor® BA 100 and 1,000 mg/L). The experiment was carried out in covered flasks (100 ml/per flask), equipped with air supply. The flasks were incubated at room temperature for 48 h, and the Daphnia motility was recorded.

various fish species = assay: Toxicity testing in various fish species; format: in vivo; settings: all five fish species tested, 15° C., up to 96 h
Experimental: LC50 values for Blankophor® BA in various fish species were determined as in Example 2, except that fish were acclimated to 21° C. for three weeks, and then to 15° C. for another two weeks before the initiation of the experiment. Following acclimation to 15° C., Blankophor® BA (100, 200, 500, 1,000 or 2,000 mg/L) was added to the tanks, and mortality of fish was recorded up to 96 h. […] The fish used were: hybrid tilapia (Oreochromis niloticus X O. aureus), average weight 20 g; grey mullet (Mugil cephalus), average weight 70 g; common carp (Cyprinus carpio), average weight 25 g; hybrid striped bass (Morone saxatilis X M. chrysops), average weight 25 g, and grass carp (Ctenopharyngodon idella), average weight 25 g.

[1] = system: Lake Kinneret water samples; assay: Delayed Fluorescent Excitation Spectroscopy (DFES) of natural phytoplankton; format: cell-based; settings: 100 mg/L; 4.6 μg/L prior to exposure
Text: The Delayed Fluorescent Excitation Spectroscopy (DFES) method was used for qualitative and quantitative assessment of the influence of Blankophor® BA on the natural population of phytoplankton, and on specific algae strains. Delayed fluorescence is a unique characteristic of photosynthetically active cells, as it is an outcome of recombination that takes place in the thylakoids in the dark (Yacobi Y. Z., V. Gerhardt, Y. Gonen-Zurgil, and A. Sukenik. 1998. Delayed fluorescence excitation spectroscopy: a rapid method for the qualitative and quantitative assessment of natural population of phytoplankton. Wat. Res. 00:1-6).
(§1) Samples from Lake Kinneret and pure cultures of Peridinium sp. and Microcystis sp. were exposed to Blankophor® BA (100 mg/L), for a few minutes and the concentration of chlorophyll-a was determined (in duplicate) according to the excitation spectrum examined (range from 400 to 730 nm). In addition, the exposed and non-exposed samples were assessed for carbon uptake with a ^14C technique.

[2] = system: Chlorella, Microcystis, Peridinium, Melosira and Lake Kinneret samples; assay: 14C-carbon uptake study of photosynthetic activity; format: cell-based, phytoplankton; settings: 100 mg/L
Experimental: FIG. 6 illustrates the effect of exposure to Blankophor® BA (100 mg/L) (□) on photosynthetic activity in pure cultures of Chlorella (C), Microcystis (M), Peridinium (P) and Melosira (Me), and in samples from Lake Kinneret (LK), as determined by ^14C-uptake. Control, (▪).
as §1

[3] = system: Saprolegnia parasitica T-1; assay: Tilapia-saprolegniosis early infection model; format: in vivo, Hybrid tilapia (Oreochromis niloticus X Oreochromis aureus)
Experimental: Hybrid tilapia (Oreochromis niloticus X Oreochromis aureus), with an average weight of 20 g were treated against ectoparasites using 25 μg/ml of formaldehyde (37% v/v) two weeks prior to the experiment, and were maintained at a constant temperature of 21° C. in a 100 liter polyethylene tank. The water tank was cooled from an initial temperature of 21° C. to 14° C. over a period of 10 days. The water was kept at a constant temperature of 14° C. and the fish were acclimated for 4 days. Physical stress of abrasion was then applied by agitating 40 fish for 10 seconds within a plastic net (30×20 cm). Following this, a sterile stainless steel tea infuser containing 60 clover-seeds covered with hyphae of Saprolegnia parasitica T-1 (7 day old culture on GP-PS medium at 18° C.) was added to each tank, in which the fish density was 20 fish per 100 liters. This treatment lasted 48 h and allowed the dispersion of zoospores that were produced. The density of the zoospores in the water was determined according to the method described below, and was estimated as 5×10^2-2×10^3 zoospores per liter. The fish were then transferred to different tanks, and treated with Blankophor® BA (200, 100, 50 or 25 mg/L) or Malachite Green (0.25 mg/L) for 8 h at 13-14° C., with 10 fish per 100 L water. The treatments were applied on 2nd, 4th and 6th day following initiation of the experiment. The fish were monitored for 14 days for the presence of any lesion covered with hyphae, indicative of Saprolegnia infection. Skin biopsies of diseased and moribund fish were checked microscopically (10× and 40× magnification). Morbidity and mortality was monitored daily. Moribund and or dead fish were removed from all tanks during the experimental period.
The determination of zoospore density in the water was performed according to Willoughby, L. G. (1994) Fungi and fish diseases, Pisces Press, Stirling, Scotland p. 57.
In brief, a 1 liter sample of water from the 100 liter tank was divided into 1 and 10 ml aliquots in sterile Petri dishes. Each sample was diluted with water to give a final volume of 20 ml and then one sterile clover seed was added in order to attract and keep the zoospores. All the water samples were incubated at room temperature for 72 h allowing spore germination. The density of the zoospores was determined according to the number of seeds covered with visible mycelium.
Treatments were carried out on the 2nd, 4th and 6th days after the initiation of the infection, and each treatment was for a period of 8 h. Fish treated with 0.25 mg/L Malachite Green served as a positive treatment control. Fish were monitored for 14 days. […] All fish treated with Blankophor BA survived for at least 10 days following initiation of the infection, in contrast to untreated fish which progressively died from the 3rd day.
Due to the high efficacy of the treatment with 100 mg/L Blankophor® BA, additional experiments were performed using lower concentrations of Blankophor® BA (50 and 25 mg/L). As in the previous experiments, infected fish were treated in tanks containing different concentrations of the compound on the 2nd, 4th and 6th days after the initiation of the infection. In addition, two additional treatment regimens were added i.e. 50 mg/L (administered on the 2nd and 9th days after initiation of the infection) and 100 mg/L (administered on the 2nd day after initiation of the infection).

O=S(=O)([O-])c1cc(Nc2nc(Nc3ccccc3)nc(N(CCO)CCO)n2)ccc1C=Cc1ccc(Nc2nc(Nc3ccccc3)nc(N(CCO)CCO)n2)cc1S(=O)(=O)[O-].[K+].[Na+] [Blankophor® BA]
Daphnia motility versus non-exposed control (Daphnia sp.): no difference | LC50 (various fish species): greater than 2000 mg/L | total chlorophyll concentration (average) [1]: 9.2 µg/L | photosynthetic activity (14C-carbon uptake) [2]: did not decrease | preventing and treating saprolegniosis in tilapia fish ([3]; 25 mg/liter for 8 hours): effective | clinical observation, lesions ([3]; 50 and 100 mg/L): free of lesions | culture for Saprolegnia ([3]; 50 and 100 mg/L): negative upon culture | survival following initiation of the infection ([3]; 100 and 200 mg/L, 8 h on 2nd, 4th and 6th day, all treated fish): at least 10 days | therapeutic efficacy (survival of fish) ([3]; 100 and 200 mg/L, 8 h on 2nd, 4th and 6th day, monitored 14 days): as effective as Malachite Green | Therapeutic efficacy ([3]; Table 4 summary): Very Effective | efficacy in preventing and treating early stage saprolegniosis ([3]; even at a concentration as low as 25 mg/L, also 50 mg/L (days 2, 9) and 100 mg/L (day 2)): highly effective

C=O [Formaldehyde]
fish died within 14 days ([3]; 100 mg/L on 2nd, 4th and 6th days): 70%
